Measurements: PMC5100899 (Journal of medicinal chemistry, 2016)
≈ marks a conversion by molar mass, not a printed value. Where two headings read alike, the source gives them in different places.

Columns and labels:
[1] = system: CRL-8155; experiment: CRL-8155 growth inhibition; type: cell-based; conditions: Homo sapiens, CRL8155, read-out: human cells, GI50 CRL-8155
[2] = system: HepG2; experiment: HepG2 growth inhibition; type: cell-based; conditions: Homo sapiens, HepG2, read-out: human cells, GI50 HepG2
[3] = target: Src (Homo sapiens, UniProt P12931); experiment: Src tyrosine kinase inhibition; type: biochemical
Sequence of Src (P12931 whole entry, species assumed): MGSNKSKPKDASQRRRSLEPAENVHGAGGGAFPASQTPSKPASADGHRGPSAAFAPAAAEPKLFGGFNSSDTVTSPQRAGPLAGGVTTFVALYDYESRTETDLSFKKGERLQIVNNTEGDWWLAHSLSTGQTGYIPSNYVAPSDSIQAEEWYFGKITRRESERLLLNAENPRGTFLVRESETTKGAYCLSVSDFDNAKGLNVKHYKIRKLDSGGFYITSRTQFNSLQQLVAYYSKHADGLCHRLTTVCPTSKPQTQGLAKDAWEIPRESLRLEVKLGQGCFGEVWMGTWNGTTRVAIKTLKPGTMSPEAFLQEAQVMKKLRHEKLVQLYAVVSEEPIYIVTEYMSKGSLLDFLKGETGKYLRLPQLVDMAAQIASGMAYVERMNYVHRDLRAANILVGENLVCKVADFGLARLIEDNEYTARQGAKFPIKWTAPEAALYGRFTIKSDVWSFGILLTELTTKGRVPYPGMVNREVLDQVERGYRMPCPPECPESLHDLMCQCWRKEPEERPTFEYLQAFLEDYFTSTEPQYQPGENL

[4] = target: hERG (Homo sapiens, UniProt Q12809)
Sequence of hERG (Q12809 whole entry): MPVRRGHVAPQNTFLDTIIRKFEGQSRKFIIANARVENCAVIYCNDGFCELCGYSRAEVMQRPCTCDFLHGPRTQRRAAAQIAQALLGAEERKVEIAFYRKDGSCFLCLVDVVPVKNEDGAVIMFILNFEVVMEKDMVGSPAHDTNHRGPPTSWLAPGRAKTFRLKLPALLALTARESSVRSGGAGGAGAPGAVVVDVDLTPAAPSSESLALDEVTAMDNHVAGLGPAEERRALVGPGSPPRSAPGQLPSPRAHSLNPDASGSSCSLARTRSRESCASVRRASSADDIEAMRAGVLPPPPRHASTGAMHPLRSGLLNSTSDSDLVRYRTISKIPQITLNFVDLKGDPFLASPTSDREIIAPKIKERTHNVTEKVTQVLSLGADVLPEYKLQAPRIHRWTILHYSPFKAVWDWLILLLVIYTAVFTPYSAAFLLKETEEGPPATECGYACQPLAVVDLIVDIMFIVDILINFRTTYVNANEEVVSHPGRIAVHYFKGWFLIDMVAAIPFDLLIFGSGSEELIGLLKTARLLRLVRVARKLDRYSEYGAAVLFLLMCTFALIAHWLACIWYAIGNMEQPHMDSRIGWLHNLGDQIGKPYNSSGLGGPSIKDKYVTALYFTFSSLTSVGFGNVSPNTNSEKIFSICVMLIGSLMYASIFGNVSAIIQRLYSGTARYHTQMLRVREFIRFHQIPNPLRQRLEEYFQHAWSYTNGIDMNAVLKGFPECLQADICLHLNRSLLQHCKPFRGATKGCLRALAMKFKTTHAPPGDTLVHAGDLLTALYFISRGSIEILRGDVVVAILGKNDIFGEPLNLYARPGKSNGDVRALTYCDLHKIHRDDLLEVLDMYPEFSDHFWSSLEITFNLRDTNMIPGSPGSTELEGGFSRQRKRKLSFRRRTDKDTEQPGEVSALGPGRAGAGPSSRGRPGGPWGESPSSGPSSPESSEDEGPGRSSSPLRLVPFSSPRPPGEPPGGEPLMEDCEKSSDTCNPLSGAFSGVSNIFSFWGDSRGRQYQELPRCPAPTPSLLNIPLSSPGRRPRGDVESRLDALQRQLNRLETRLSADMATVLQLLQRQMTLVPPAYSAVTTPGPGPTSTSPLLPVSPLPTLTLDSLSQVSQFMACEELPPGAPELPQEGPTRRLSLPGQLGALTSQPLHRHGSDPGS

[5] = phosphate-buffered saline, pH 6.5
[6] = physchem; conditions: phosphate-buffered saline, pH 6.5, Solubility
[7] = in vitro; conditions: mouse

Row | GI50 [2] | IC50 [3] | solubility [5] | solubility [6] | Compound | GI50 [1] | lower activity against hERG than 1 [4] | EC50 [7]
1 | > 10 µM | > 10 µM |  |  | CCOc1ccc2cc(-c3nn(CC4CNC4)c4ncnc(N)c34)ccc2c1 [Compound 5] | > 10 µM |  | 
2 | > 10 µM | > 10 µM |  |  | CCOc1ccc2cc(-c3nn(CC4CN(C)C4)c4ncnc(N)c34)ccc2c1 [Compound 6] | > 10 µM |  | 
3 | > 10 µM | > 10 µM |  |  | CCOc1ccc2cc(-c3nn(CC4CCN(C(C)C)CC4)c4ncnc(N)c34)ccc2c1 [Compound 7] | > 10 µM |  | 
4 | > 10 µM |  |  |  | CCOc1ccc2cc(-c3nn(CC4CCN(C(C)=O)CC4)c4ncnc(N)c34)ccc2c1 [Compound 8] | > 10 µM |  | 
5 | > 10 µM |  |  |  | CCOc1ccc2cc(-c3nn(CC4CN(C(C)=O)C4)c4ncnc(N)c34)ccc2c1 [Compound 9] | > 10 µM |  | 
6 | > 10 µM | > 10 µM |  |  | CN1CCC(Cn2nc(-c3ccc4cc(OCC5CC5)ccc4c3)c3c(N)ncnc32)CC1 [Compound 10, 3-(6-(Cyclopropylmethoxy)naphthalen-2-yl)-1-((1-methylpiperidin-4-yl)methyl)-1H-pyrazolo[3,4-d]pyrimidin-4-amine] | > 10 µM |  | 
7 |  | > 10 µM |  |  | CN1CCC(Cn2nc(-c3ccc4cc(OC5CC5)ccc4c3)c3c(N)ncnc32)CC1 [Compound 12, 3-(6-Cyclopropoxynaphthalen-2-yl)-1-((1-methylpiperidin-4-yl)methyl)-1H-pyrazolo[3,4-d]pyrimidin-4-amine] | > 10 µM |  | 
8 | > 10 µM | > 10 µM |  |  | COCCOc1ccc2cc(-c3nn(CC4CCN(C)CC4)c4ncnc(N)c34)ccc2c1 [Compound 13, 3-(6-(2-Methoxyethoxy)naphthalen-2-yl)-1-((1-methylpiperidin-4-yl)methyl)-1H-pyrazolo[3,4-d]pyrimidin-4-amine] | > 10 µM |  | 
9 | > 10 µM | > 10 µM |  |  | CN1CCC(Cn2nc(-c3ccc4cc(OC5COC5)ccc4c3)c3c(N)ncnc32)CC1 [Compound 14, 1-((1-Methylpiperidin-4-yl)methyl)-3-(6-(oxetan-3-yloxy)naphthalen-2-yl)-1H-pyrazolo[3,4-d]pyrimidin-4-amine] | > 10 µM |  | 
10 | > 10 µM | > 10 µM |  |  | CN1CCC(Cn2nc(-c3ccc4cc(OCC(C)(C)O)ccc4c3)c3c(N)ncnc32)CC1 [Compound 16, 1-(6-(4-Amino-1-((1-methylpiperidin-4-yl)methyl)-1H-pyrazolo[3,4-d]pyrimidin-3-yl)naphthalen-2-yloxy)-2-methylpropan-2-ol] | > 10 µM |  | 
11 |  | > 10 µM |  |  | CCOc1ccc2cc(-c3nn(CC4CCN(C)CC4)c4ncnc(N)c34)ccc2n1 [Compound 17, 3-(2-Ethoxyquinolin-6-yl)-1-((1-methylpiperidin-4-yl)methyl)-1H-pyrazolo[3,4-d]pyrimidin-4-amine] |  | 25 fold | 
12 | > 10 µM | > 10 µM |  |  | CN1CCC(Cn2nc(-c3ccc4nc(OC5CC5)ccc4c3)c3c(N)ncnc32)CC1 [Compound 19, 3-(2-Cyclopropoxyquinolin-6-yl)-1-((1-methylpiperidin-4-yl)methyl)-1H-pyrazolo[3,4-d]pyrimidin-4-amine] |  |  | 
13 | > 10 µM | > 10 µM |  |  | CN(C)CC(C)(C)Cn1nc(-c2ccc3nc(OC4CC4)ccc3c2)c2c(N)ncnc21 [Compound 20, 3-(2-Cyclopropoxyquinolin-6-yl)-1-(3-(dimethylamino)-2,2-dimethylpropyl)-1H-pyrazolo[3,4-d]pyrimidin-4-amine] | > 10 µM |  | 
14 | > 10 µM | > 10 µM |  |  | CCOc1ccc2cc(-c3nn(CC(C)C)c4ncnc(N)c34)ccc2c1 [Compound 21, 3-(6-Ethoxynaphthalen-2-yl)-1-isobutyl-1H-pyrazolo[3,4-d]pyrimidin-4-amine] | > 10 µM |  | 
15 |  |  |  |  | CC(C)Cn1nc(-c2ccc3cc(OC4CC4)ccc3c2)c2c(N)ncnc21 [Compound 22, 3-(6-Cyclopropoxynaphthalen-2-yl)-1-isobutyl-1H-pyrazolo[3,4-d]pyrimidin-4-amine] | > 10 µM |  | 
16 | > 10 µM | > 10 µM |  |  | CC(C)Cn1nc(-c2ccc3nc(OC4CC4)ccc3c2)c2c(N)ncnc21 [Compound 23, 3-(2-Cyclopropoxyquinolin-6-yl)-1-isobutyl-1H-pyrazolo[3,4-d]pyrimidin-4-amine] | > 10 µM |  | 
17 | > 10 µM | > 10 µM |  |  | CC1(Cn2nc(-c3ccc4cc(OC5CC5)ccc4c3)c3c(N)ncnc32)COC1 [Compound 24, 3-(6-Cyclopropoxynaphthalen-2-yl)-1-((3-methyloxetan-3-yl)methyl)-1H-pyrazolo[3,4-d]pyrimidin-4-amine] | > 10 µM |  | 
18 | > 10 µM | > 10 µM |  |  | CC1(Cn2nc(-c3ccc4nc(OC5CC5)ccc4c3)c3c(N)ncnc32)COC1 [Compound 25, 3-(2-Cyclopropoxyquinolin-6-yl)-1-((3-methyloxetan-3-yl)methyl)-1H-pyrazolo[3,4-d]pyrimidin-4-amine] | > 10 µM |  | 
19 | > 10 µM | > 10 µM |  |  | CCOc1ccc2cc(-c3nn(CC4CCOCC4)c4ncnc(N)c34)ccc2c1 [Compound 26] | > 10 µM |  | 
20 | > 10 µM | > 10 µM |  |  | CCOc1ccc2cc(-c3nn(CC4CCOCC4)c4ncnc(N)c34)ccc2n1 [Compound 27] | > 10 µM |  | 
21 | > 10 µM |  |  |  | Nc1ncnc2c1c(-c1ccc3cc(OC4CC4)ccc3c1)nn2CC1CCOCC1 [Compound 28, 3-(6-Cyclopropoxynaphthalen-2-yl)-1-((tetrahydro-2H-pyran-4-yl)methyl)-1H-pyrazolo[3,4-d]pyrimidin-4-amine] | > 10 µM |  | 
22 | > 10 µM | > 10 µM | 17 µM (≈ 7.08 µg/mL) | < 20 µM | Nc1ncnc2c1c(-c1ccc3nc(OC4CC4)ccc3c1)nn2CC1CCOCC1 [Compound 29, 3-(2-Cyclopropoxyquinolin-6-yl)-1-((tetrahydro-2H-pyran-4-yl)methyl)-1H-pyrazolo[3,4-d]pyrimidin-4-amine] | > 10 µM |  | 
23 | > 10 µM | > 10 µM |  |  | CCOc1ccc2cc(-c3nn(CC(C)(C)O)c4ncnc(N)c34)ccc2c1 [Compound 30, 1-(4-Amino-3-(6-ethoxynaphthalen-2-yl)-1H-pyrazolo[3,4-d]pyrimidin-1-yl)-2-methylpropan-2-ol] | > 10 µM |  | 
24 | > 10 µM | > 10 µM |  |  | CCOc1ccc2cc(-c3nn(CC(C)(C)O)c4ncnc(N)c34)ccc2n1 [Compound 31, 1-(4-Amino-3-(2-ethoxyquinolin-6-yl)-1H-pyrazolo[3,4-d]pyrimidin-1-yl)-2-methylpropan-2-ol] | > 10 µM |  | 
25 |  | > 10 µM |  |  | CC(C)(CO)Cn1nc(-c2ccc3nc(OCC(F)(F)F)ccc3c2)c2c(N)ncnc21 [Compound 36, 3-(4-Amino-3-(2-(2,2,2-trifluoroethoxy)quinolin-6-yl)-1H-pyrazolo[3,4-d]pyrimidin-1-yl)-2,2-dimethylpropan-1-ol] |  |  | 
26 | > 10 µM | > 10 µM |  |  | Nc1ncnc2c1c(-c1ccc3cc(OC4CC4)ccc3c1)nn2CC(O)(C(F)(F)F)C(F)(F)F [Compound 37, 2-((4-Amino-3-(6-cyclopropoxynaphthalen-2-yl)-1H-pyrazolo[3,4-d]pyrimidin-1-yl)methyl)-1,1,1,3,3,3-hexafluoropropan-2-ol] | > 10 µM |  | 

Row | Compound | GI50 [2] | IC50 [3] | solubility [5] | solubility [6] | GI50 [1] | lower activity against hERG than 1 [4] | EC50 [7]
27 | CN1CCC(Cn2nc(-c3ccc4cc(OC5CCC5)ccc4c3)c3c(N)ncnc32)CC1 [Compound 11, 3-(6-Cyclobutoxynaphthalen-2-yl)-1-((1-methylpiperidin-4-yl)methyl)-1H-pyrazolo[3,4-d]pyrimidin-4-amine] | > 10 µM | > 10 µM |  |  | > 10 µM |  | 
28 | CC(C)(O)Cn1nc(-c2ccc3nc(OC4CC4)ccc3c2)c2c(N)ncnc21 [Compound 33, 1-(4-Amino-3-(2-cyclopropoxyquinolin-6-yl)-1H-pyrazolo[3,4-d]pyrimidin-1-yl)-2-methylpropan-2-ol] | > 10 µM |  |  |  | > 10 µM |  | 1.33 µM
